According to article PMC10030409 (Investigational New Drugs, 2023):
Where two headings read alike, the source gives them in different places.

Key:
[1] = in vivo
Procedure: Polymorphisms in EGFR, ABCG2, ABCB1, and POR (Online Resource, Appendix A) were analyzed using TaqMan® probe-based assays (Applied Biosystems, Foster City, CA, USA), whereas the ABCG2 polymorphism (rs2231137) was studied using the CycleavePCR® assay (TaKaRa Bio Inc., Kusatsu, Japan). The detailed genotyping method is provided in the Online Resource (Appendix A).
Germline polymorphism and the worst grade of AE occurring in each patient were analyzed for pharmacogenomics–toxicity relationship analysis.
The cut-off date for data collection was April 4, 2022. Continuous variables such as AUC0–24 and laboratory data are presented as median (interquartile range, IQR); estimates of PopPK parameters are presented as mean (standard error, SE). […] Receiver operating characteristic (ROC) curve analysis was used to evaluate the discrimination potential of AUC0–24 for grade ≥ 2 AEs. […] All p-values were two-sided, and statistical significance was set at p < 0.05.
The EGFR polymorphisms (rs2293348, rs4947492, rs11977388, rs2227983, and rs884225), ABCG2 (rs2231142 and rs2622604), ABCB1 (rs1128503, rs1045642, and rs2032582), and POR (rs17685 and rs1057868) were analyzed using Taqman® probe-based assays (Applied Biosystems, CA, USA). The probes (FAM/VIC-fluorescent) and primers for these polymorphisms were purchased from Applied Biosystems (TaqMan® SNP Genotyping Assay ID: C _ 144945_20, C _ 27876021_10, C _ 321871_10, C _ 16170352_20, and C _ 9501579_10 for EGFR polymorphisms; C _ 15854163_70 and C _ 9510352_10 for ABCG2 polymorphisms; C _ 7586662_10, C _ 7586657_20, C_11711720D_40, and C_11711720C_30 for ABCB1 polymorphisms; and C _ 8890133_30 and C _ 8890131_30 for POR polymorphisms). The real-time PCR reaction mix included 4.5 ng of DNA template diluted in 4.5 µL DNase‑Free distilled water, 5 µL TaqMan® Universal Master Mix II with UNG (Uracil-N-Glycosylase), and 0.5 µL TaqMan® SNP Genotyping Assay mix, including the primers and probes, in a total volume of 10 µL. The reactions were performed under the following conditions: UNG incubation at 50 °C for 2 min and polymerase activation at 95 °C for 10 min, followed by 50 cycles of 95 °C for 15 s and 60 °C for 60 s.
ABCG2 polymorphism (rs2231137) was studied using the CycleavePCR® assay (TaKaRa Bio Inc., Kusatsu, Shiga, Japan). The primers and probes for ABCG2 rs2231137 were designed using the CycleavePCR Assay Designer (SNPs, TaKaRa Bio Inc.): forward 5′- […]-3′; reverse 5′-[…]-3′; FAM-labeled probe 5′-(Eclipse)[…][G]TG(FAM)-3′; and HEX-labeled probe 5′-(Eclipse)TATCCCA[A]TGT(HEX)-3′. The real-time PCR reaction mix per reaction included 4 ng of DNA template diluted in 10.5 μL DNase‑Free distilled water, 12.5 μL CycleavePCR Reaction Mix, 0.5 μL each of forward and reverse primers, and 1 μL each of FAM/HEX-labeled probes in a total volume of 26 μL. The reactions were performed under the following conditions: initial denaturation at 95 °C for 10 s, followed by 50 cycles at 95 °C for 5 s, 55 °C for 10 s, and 72 °C for 20 s.
After real-time PCR, the result of the allelic discrimination was plotted by reading the generated fluorescence using CFX Manager Software version 3.1 (Bio-Rad Laboratories). For quality control, all the polymorphisms were genotyped more than twice.

[2] = cited from earlier work
[3] = cited from earlier work; remark: listed apart in the source
[4] = Osimertinib AUC0-24 <4938 ng/mL*h, n = 29, any grade
[5] = Osimertinib AUC0-24 <4938 ng/mL*h, n = 29, grade ≥2
[6] = Osimertinib AUC0-24 ≥4938 ng/mL*h, n = 22, any grade
[7] = Osimertinib AUC0-24 ≥4938 ng/mL*h, n = 22, grade ≥2

C=CC(=O)Nc1cc(Nc2nccc(-c3cn(C)c4ccccc34)n2)c(OC)cc1N(C)CCN(C)C [osimertinib]
Any grade ≥ 2 AEs in patients with ABCG2 rs2231137 G/A or A/A genotypes [1]: higher frequency
Association of ABCB1 rs1128503 C > T (C/T and T/T genotypes) with any grade ≥ 2 AEs [1]: significant association
Association of ABCB1 rs2032582 G > T/A (A/T and G/T genotypes) with any grade ≥ 2 skin disorders [1]: associated
Association of ABCB1 rs2032582 G > T/A (A/T and G/T genotypes) with grade ≥ 2 lymphocyte count decrease [1]: associated
Association of EGFR rs2293348 C > T (C/T genotype) with any severe AEs [1]: associated with any severe AEs
Association of EGFR rs2293348 C > T (C/T genotype) with grade ≥ 1 or ≥ 2 anorexia [1]: significantly associated
Association of EGFR rs4947492 G > A (A/A genotype) with any severe AEs [1]: associated with any severe AEs
Association of polymorphisms in POR with any AEs or PK [1]: not significantly associated
Association between AUC0–24 and grade ≥ 2 increased creatinine (Mann–Whitney U test): significant association
Anorexia, % of patients [4]: (10.3) %
Anorexia, No. of patients [4]: 3
Any adverse events, % of patients [4]: (100.0) %
Any adverse events, No. of patients [4]: 29
Creatinine increased, % of patients [4]: (44.8) %
Creatinine increased, No. of patients [4]: 13
Diarrhea, % of patients [4]: (58.6) %
Diarrhea, No. of patients [4]: 17
Interstitial lung disease, % of patients [4]: (0.0) %
Interstitial lung disease, No. of patients [4]: 0
Paronychia, % of patients [4]: (37.9) %
Paronychia, No. of patients [4]: 11
Anorexia, % of patients [5]: (6.90) %
Anorexia, No. of patients [5]: 2
Any adverse events, % of patients [5]: (69.0) %
Any adverse events, No. of patients [5]: 20
Creatinine increased, % of patients [5]: (0.0) %
Creatinine increased, No. of patients [5]: 0
Diarrhea, % of patients [5]: (0.0) %
Diarrhea, No. of patients [5]: 0
Interstitial lung disease, % of patients [5]: (0.0) %
Interstitial lung disease, No. of patients [5]: 0
Paronychia, % of patients [5]: (27.6) %
Paronychia, No. of patients [5]: 8
Anorexia, % of patients [6]: (18.2) %
Anorexia, No. of patients [6]: 4
Any adverse events, % of patients [6]: (100.0) %
Any adverse events, No. of patients [6]: 22
Creatinine increased, % of patients [6]: (50.0) %
Creatinine increased, No. of patients [6]: 11
Diarrhea, % of patients [6]: (45.5) %
Diarrhea, No. of patients [6]: 10
Interstitial lung disease, % of patients [6]: (4.5) %
Interstitial lung disease, No. of patients [6]: 1
Paronychia, % of patients [6]: (54.5) %
Paronychia, No. of patients [6]: 12
Anorexia, % of patients [7]: (13.6) %
Anorexia, No. of patients [7]: 3
Any adverse events, % of patients [7]: (95.5) %
Any adverse events, No. of patients [7]: 21
Creatinine increased, % of patients [7]: (18.2) %
Creatinine increased, No. of patients [7]: 4
Diarrhea, % of patients [7]: (13.6) %
Diarrhea, No. of patients [7]: 3
Interstitial lung disease, % of patients [7]: (4.5) %
Interstitial lung disease, No. of patients [7]: 1
Paronychia, % of patients [7]: (27.3) %
Paronychia, No. of patients [7]: 6
Sensitivity of AUC0–24 cut-off for grade ≥ 2 AEs (ROC curve): 51%
Specificity of AUC0–24 cut-off for grade ≥ 2 AEs (ROC curve): 90%
Half-life [2]: 59.7 h
Oral bioavailability [2]: 69.8%
Patients experiencing grade ≥ 2 adverse events [3]: over 80%
Patients experiencing grade ≥ 3 adverse events [3]: > 30%
